Experimental data: patent publication US8962843B2, “1,3,4-oxadiazole and 1,3,4-thiadiazole beta-lactamase inhibitors” (priority 2012, dated 2015)
Where a name gives a salt, the structure may show the parent alone.

Columns and labels:
[1] = tested on: bacterial strains that express the class D cephalosporinase OXA-15; experiment: Standard BLI potentiation MIC / synergy MIC assays, strains expressing OXA-15; type: cell-based, E. coli; settings: in combination with a β-lactam; comparator Avibactam (CCC)
In short: (§1)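 Broth microdilution in cation-adjusted Mueller Hinton broth per CLSI M07-A9, ~10^5 CFU/mL, 18-20 h at 37 °C with aeration; engineered E. coli carrying β-lactamase plasmids kept on 25 μg/mL tetracycline. β-lactam MIC measured in 2-fold dilutions (128-0.13 μg/mL) with BLI fixed at 4 μg/mL; sMIC titrates BLI against a fixed β-lactam concentration. MIC = lowest concentration without visible turbidity.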

[2] = tested on: bacterial strains that express KPC β-lactamases; experiment: Standard BLI potentiation MIC / synergy MIC assays, strains expressing KPC β-lactamases; type: cell-based; settings: in combination with a β-lactam; comparator Avibactam
In short: as §1

Compound	activity against bacterial strains that express the class D cephalosporinase OXA-15, compared with Avibactam [1]	activity and/or spectrum of activity against bacterial strains that express KPC β-lactamases, compared with Avibactam [2]
N=C(N)NC[C@H](O)c1nnc([C@@H]2CC[C@@H]3CN2C(=O)N3OS(=O)(=O)O)o1 [Compound 732, (2S,5R)-2-(5-((S)-2-guanidino-1-hydroxyethyl)-1,3,4-oxadiazol-2-yl)-7-oxo-1,6-diazabicyclo[3.2.1]octan-6-yl hydrogen sulfate]	more active than Avibactam	more active than Avibactam for at least one, bacterial strain that expresses KPC β-lactamase and/or show a better spectrum of activity
NC(=O)c1nnc([C@@H]2CC[C@@H]3CN2C(=O)N3OS(=O)(=O)O)o1 [Compound 706, (2S,5R)-2-(5-carbamoyl-1,3,4-oxadiazol-2-yl)-7-oxo-1,6-diaza-bicyclo[3.2.1]octan-6-yl hydrogen sulfate]	more active than Avibactam	more active than Avibactam for at least one, bacterial strain that expresses KPC β-lactamase and/or show a better spectrum of activity
NC1CCN(Cc2nnc([C@@H]3CC[C@@H]4CN3C(=O)N4OS(=O)(=O)O)o2)CC1 [Compound 774, (2S,5R)-2-(5-((4-aminopiperidin-1-yl)methyl)-1,3,4-oxadiazol-2-yl)-7-oxo-1,6-diazabicyclo[3.2.1]octan-6-yl hydrogen sulfate]	more active than Avibactam	more active than Avibactam for at least one, bacterial strain that expresses KPC β-lactamase and/or show a better spectrum of activity
N=C(N)NCc1nnc([C@@H]2CC[C@@H]3CN2C(=O)N3OS(=O)(=O)O)s1 [Compound 721, (2S,5R)-2-(5-(guanidinomethyl)-1,3,4-thiadiazol-2-yl)-7-oxo-1,6-diazabicyclo[3.2.1]octan-6-yl hydrogen sulfate]	more active than Avibactam	more active than Avibactam for at least one, bacterial strain that expresses KPC β-lactamase and/or show a better spectrum of activity
CC(C)(N)Cc1nnc([C@@H]2CC[C@@H]3CN2C(=O)N3OS(=O)(=O)O)o1 [Compound 737, (2S,5R)-2-(5-(2-amino-2-methylpropyl)-1,3,4-oxadiazol-2-yl)-7-oxo-1,6-diazabicyclo[3.2.1]octan-6-yl hydrogen sulfate]	more active than Avibactam	more active than Avibactam for at least one, bacterial strain that expresses KPC β-lactamase and/or show a better spectrum of activity
N[C@H]1C[C@@H](NCc2nnc([C@@H]3CC[C@@H]4CN3C(=O)N4OS(=O)(=O)O)o2)C1 [Compound 756, (2S,5R)-2-(5-((((1s,3R)-3-aminocyclobutyl)amino)methyl)-1,3,4-oxadiazol-2-yl)-7-oxo-1,6-diazabicyclo[3.2.1]octan-6-yl hydrogen sulfate]	more active than Avibactam	more active than Avibactam for at least one, bacterial strain that expresses KPC β-lactamase and/or show a better spectrum of activity
N=C(N)N1CC(c2nnc([C@@H]3CC[C@@H]4CN3C(=O)N4OS(=O)(=O)O)o2)C1 [Compound 709, (2S,5R)-2-(5-(1-carbamimidoylazetidin-3-yl)-1,3,4-oxadiazol-2-yl)-7-oxo-1,6-diazabicyclo[3.2.1]octan-6-yl hydrogen sulfate]	more active than Avibactam	more active than Avibactam for at least one, bacterial strain that expresses KPC β-lactamase and/or show a better spectrum of activity
NCc1nnc([C@@H]2CC[C@@H]3CN2C(=O)N3OS(=O)(=O)O)o1 [Compound 702, (2S,5R)-2-(5-(aminomethyl)-1,3,4-oxadiazol-2-yl)-7-oxo-1,6-diazabicyclo[3.2.1]octan-6-yl hydrogen sulfate]	more active than Avibactam	more active than Avibactam for at least one, bacterial strain that expresses KPC β-lactamase and/or show a better spectrum of activity
NC1(Cc2nnc([C@@H]3CC[C@@H]4CN3C(=O)N4OS(=O)(=O)O)o2)CC1 [Compound 724, (2S,5R)-2-(5-((1-aminocyclopropyl)methyl)-1,3,4-oxadiazol-2-yl)-7-oxo-1,6-diazabicyclo[3.2.1]octan-6-yl hydrogen sulfate]	more active than Avibactam	more active than Avibactam for at least one, bacterial strain that expresses KPC β-lactamase and/or show a better spectrum of activity
N=C(N)N[C@H]1C[C@@H](c2nnc([C@@H]3CC[C@@H]4CN3C(=O)N4OS(=O)(=O)O)o2)C1 [Compound 749, (2S,5R)-2-(5-((1s,3R)-3-guanidinocyclobutyl)-1,3,4-oxadiazol-2-yl)-7-oxo-1,6-diazabicyclo[3.2.1]octan-6-yl hydrogen sulfate]	more active than Avibactam	more active than Avibactam for at least one, bacterial strain that expresses KPC β-lactamase and/or show a better spectrum of activity
O=C1N2C[C@@H](CC[C@H]2c2nnc(COC3CNC3)o2)N1OS(=O)(=O)O [Compound 744, (2S,5R)-2-(5-((azetidin-3-yloxy)methyl)-1,3,4-oxadiazol-2-yl)-7-oxo-1,6-diazabicyclo[3.2.1]octan-6-yl hydrogen sulfate]	more active than Avibactam	more active than Avibactam for at least one, bacterial strain that expresses KPC β-lactamase and/or show a better spectrum of activity
NCCCc1nnc([C@@H]2CC[C@@H]3CN2C(=O)N3OS(=O)(=O)O)o1 [Compound 720, (2S,5R)-2-(5-(3-aminopropyl)-1,3,4-oxadiazol-2-yl)-7-oxo-1,6-diazabicyclo[3.2.1]octan-6-yl hydrogen sulfate]	more active than Avibactam	more active than Avibactam for at least one, bacterial strain that expresses KPC β-lactamase and/or show a better spectrum of activity
N[C@H]1C[C@@H](Cc2nnc([C@@H]3CC[C@@H]4CN3C(=O)N4OS(=O)(=O)O)o2)C1 [Compound 728, (2S,5R)-2-(5-(((1s,3R)-3-aminocyclobutyl)methyl)-1,3,4-oxadiazol-2-yl)-7-oxo-1,6-diazabicyclo[3.2.1]octan-6-yl hydrogen sulfate]	more active than Avibactam	more active than Avibactam for at least one, bacterial strain that expresses KPC β-lactamase and/or show a better spectrum of activity
O=C1N2C[C@@H](CC[C@H]2c2nnc([C@@H]3CCNC3)o2)N1OS(=O)(=O)O [Compound 759, (2S,5R)-7-oxo-2-(5((R)-pyrrolidin-3-yl)-1,3,4-oxadiazol-2-yl)-1,6-diazabicyclo[3.2.1]octan-6-yl hydrogen sulfate]	more active than Avibactam	more active than Avibactam for at least one, bacterial strain that expresses KPC β-lactamase and/or show a better spectrum of activity
N=C(N)NCC(O)Cc1nnc([C@@H]2CC[C@@H]3CN2C(=O)N3OS(=O)(=O)O)o1 (stereo partly drawn) [Compound 730, (2S,5R)-2-(5-(3-guanidino-2-hydroxypropyl)-1,3,4-oxadiazol-2-yl)-7-oxo-1,6-diazabicyclo[3.2.1]octan-6-yl hydrogen sulfate]	more active than Avibactam	more active than Avibactam for at least one, bacterial strain that expresses KPC β-lactamase and/or show a better spectrum of activity
O=C1N2C[C@@H](CC[C@H]2c2nnc(CN[C@@H]3CCNC3)o2)N1OS(=O)(=O)O [Compound 766, (2S,5R)-7-oxo-2-(5-(((R)-pyrrolidin-3-ylamino)methyl)-1,3,4-oxadiazol-2-yl)-1,6-diazabicyclo[3.2.1]octan-6-yl hydrogen sulfate]	more active than Avibactam	more active than Avibactam for at least one, bacterial strain that expresses KPC β-lactamase and/or show a better spectrum of activity
O=C1N2C[C@@H](CC[C@H]2c2nnco2)N1OS(=O)(=O)O [Compound 701, (2S,5R)-2-(1,3,4-oxadiazol-2-yl)-7-oxo-1,6-diazabicyclo[3.2.1]octan-6-yl hydrogen sulfate]	more active than Avibactam	more active than Avibactam for at least one, bacterial strain that expresses KPC β-lactamase and/or show a better spectrum of activity
